Reference: US10729672B2 (Wyeth LLC, priority 2005, dated 2020)

Assays:
Assay type in all cases: cell-based
[1] = tested on: MDA-MB-361 [HER-2+ (non-amplified); adenocarcinoma; ATCC HTB 27] cells; test: SRB cell survival / growth inhibition, MDA-MB-361 cells; settings: MDA-MB-361, lower levels of HER-2 without amplification
Method: (§1) The combination was tested in three breast cancer cell lines of differing genotypes.
(§2) Cells from each of these cell lines were incubated in the presence of a range of concentrations ([…]) for each drug. […] Compound dilutions were prepared in the same medium, at 2× final concentration, and 100 μl of the drug dilution was added to the cell-containing wells.
(§3) Serial dilutions of one compound were prepared in the presence of a fixed dose of a second compound. Alternatively, a checkerboard dilution series was employed. Cells were cultured for three days in the presence of the drugs. Untreated cells were included as controls. The percentage of surviving cells was determined using sulforhodamine B (SRB, Sigma-Aldrich, St Louis, Mo.), a protein binding dye. Cellular protein was precipitated in each well by the addition of 50 μl 50% cold trichloroacetic acid. After 1 hour, the plates were washed extensively in water and dried. SRB dye reagent (0.4% SRB in 1% acetic acid, 80 μl per well) was added and plates were kept at room temperature for ten minutes. […] Cell-associated dye was dissolved in 10 mM Tris (150 μl) and the absorbance was read at 540 nm in a microtiter plate reader. The concentration of compound that caused a fixed percentage inhibition of growth was determined by plotting cell survival (relative to untreated cells) against the compound dose.

[2] = tested on: BT474 [HER-2+ (amplified); ATCC HTB-20] cells; test: SRB cell survival / growth inhibition, BT474 cells
Method: as §1, §2, §3

[3] = tested on: MCF-7 [HER-2−, EGFR−; adenocarcinoma; ATCC HTB22] cells; test: SRB cell survival / growth inhibition, MCF-7 cells; settings: MCF-7, no HER-2
Method: as §1, §2, §3

SMILES: CCOc1cc2ncc(C#N)c(Nc3ccc(OCc4ccccn4)c(Cl)c3)c2cc1NC(=O)/C=C/CN(C)C [HKI-272, (E)-N-{4-[3-chloro-4-(2-pyridinylmethoxy)anilino]-3-cyano-7-ethoxy-6-quinolinyl}-4-(dimethylamino)-2-butenamide]
- sensitivity of the cell line to the single agent [1]: less sensitive
- sensitivity of the cell line to the single agent [2]: highly sensitive
- sensitivity of the cell line to the single agent [3]: resistant
